# Biological target: T1, Recombinant human cathepsin A (Homo sapiens, UniProt P10619)
# T1 construct: Recombinant human cathepsin A (residues 29-480, with a C-terminal 10-His tag); 10-His (C); purchased R&D Systems 1049-SE
# T1 sequence (P10619 29-326 limits assumed): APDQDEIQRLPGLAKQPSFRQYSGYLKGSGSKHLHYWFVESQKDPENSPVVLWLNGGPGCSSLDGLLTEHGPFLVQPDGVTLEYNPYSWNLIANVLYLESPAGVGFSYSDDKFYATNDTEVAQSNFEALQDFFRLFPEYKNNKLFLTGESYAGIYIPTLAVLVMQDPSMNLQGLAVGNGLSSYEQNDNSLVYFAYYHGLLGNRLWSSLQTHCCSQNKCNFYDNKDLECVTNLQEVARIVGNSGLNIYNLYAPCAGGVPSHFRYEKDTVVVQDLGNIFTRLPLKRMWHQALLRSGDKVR
# T1 sequence (P10619 327-480 limits assumed): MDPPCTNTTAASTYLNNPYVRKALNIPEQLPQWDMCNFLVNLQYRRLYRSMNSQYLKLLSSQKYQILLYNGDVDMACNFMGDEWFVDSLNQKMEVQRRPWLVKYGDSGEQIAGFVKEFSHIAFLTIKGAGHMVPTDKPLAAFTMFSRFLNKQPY
# Assay: Cathepsin A inhibitory activity
# Format: biochemical
# Details: activated recombinant human cathepsin A 833 ng/ml, Bodipy FL-labeled bradykinin 2 μM, pH 5.5, 15 min room temperature
# Procedure: a) Cathepsin a Inhibitory Activity
# Briefly, cathepsin A was incubated at 10 μg/ml with cathepsin L at 1 μg/ml in activation buffer (25 mM 2-(morpholin-4-yl)-ethanesulfonic acid (MES), pH 6.0, containing 5 mM dithiothreitol (DTT)) for 15 min at 37° C.
# The activated cathepsin A was diluted in assay buffer (25 mM MES, pH 5.5, containing 5 mM DTT) and mixed with the test compound (dissolved in assay buffer containing (v/v) 3% DMSO) or, in the control experiments, with the vehicle in a multiple assay plate. After incubation for 15 min at room temperature, as substrate then bradykinin carrying an N-terminal ®Bodipy FL (4,4-difluoro-5,7-dimethyl-4-bora-3a,4a-diaza-s-indacene-3-propionyl) label (JPT Peptide Technologies GmbH; dissolved in assay buffer) was added to the mixture. […] After incubation for 15 min at room temperature the reaction was stopped by the addition of stop buffer (130 mM 2-(4-(2-hydroxy-ethyl)-piperazin-1-yl)-ethanesulfonic acid, pH 7.4, containing (v/v) 0.013%® Triton X-100, 0.13% Coating Reagent 3 (Caliper Life Sciences), 6.5% DMSO and 20 μM ebelactone B (Sigma, # E0886)).
# Uncleaved substrate and product were then separated by a microfluidic capillary electrophoresis on a LabChip® 3000 Drug Discovery System (12-Sipper-Chip; Caliper Life Sciences) and quantified by determination of the respective peak areas. Substrate turnover was calculated by dividing product peak area by the sum of substrate and product peak areas, and the enzyme activity and the inhibitory effect of the test compound thus quantified.
row,IC50 [µM],Structure (SMILES)
1,0.213,"Cc1ccccc1[C@H](CC(=O)O)NC(=O)c1c[nH]c(-c2ccccc2)n1 [Example 1, (S)-3-[(2-Phenyl-1H-imidazole-4-carbonyl)-amino]-3-o-tolyl-propionic acid]"
2,6.96,"Cc1ccccc1[C@H](CC(=O)O)NC(=O)c1cc(-c2ccccc2)on1 [Example 2, (S)-3-[(5-Phenyl-isoxazole-3-carbonyl)-amino]-3-o-tolyl-propionic acid]"
3,4.97,"Cc1oc(-c2ccccc2)nc1C(=O)NC(CC(=O)O)C1CCCCC1 (stereo not drawn) [Example 3, 3-Cyclohexyl-3-[(5-methyl-2-phenyl-oxazole-4-carbonyl)-amino]-propionic acid]"
4,12.9,"Cc1oc(-c2ccccc2)nc1C(=O)NC(CC(=O)O)Cc1ccccc1 (stereo not drawn) [Example 4, 3-[(5-Methyl-2-phenyl-oxazole-4-carbonyl)-amino]-4-phenyl-butyric acid]"
5,0.251,"Cc1ccccc1[C@H](CC(=O)O)NC(=O)c1nc(-c2ccccc2)oc1C [Example 5, (S)-3-[(5-Methyl-2-phenyl-oxazole-4-carbonyl)-amino]-3-o-tolyl-propionic acid]"
6,4.13,"Cc1oc(-c2ccccc2)nc1C(=O)N[C@@H](CC(=O)O)c1ccccc1F [Example 7, (S)-3-(2-Fluoro-phenyl)-3-[(5-methyl-2-phenyl-oxazole-4-carbonyl)-amino]-propionic acid]"
7,5.31,"Cc1oc(-c2ccccc2)nc1C(=O)N[C@@H](CC(=O)O)c1cccc(F)c1 [Example 8, (S)-3-(3-Fluoro-phenyl)-3-[(5-methyl-2-phenyl-oxazole-4-carbonyl)-amino]-propionic acid]"
8,5.57,"Cc1oc(-c2ccccc2)nc1C(=O)N[C@@H](CC(=O)O)c1ccc(F)cc1 [Example 9, (S)-3-(4-Fluoro-phenyl)-3-[(5-methyl-2-phenyl-oxazole-4-carbonyl)-amino]-propionic acid]"
9,2.32,"Cc1oc(-c2ccccc2F)nc1C(=O)N[C@@H](CC(=O)O)c1ccccc1 [Example 10, (S)-3-{[2-(2-Fluoro-phenyl)-5-methyl-oxazole-4-carbonyl]-amino}-3-phenyl-propionic acid]"
10,4.89,"O=C(O)C[C@@H](Cc1ccccc1)NC(=O)c1nc(-c2ccccc2F)no1 [Example 11, (R)-3-{[3-(2-Fluoro-phenyl)-[1,2,4]oxadiazole-5-carbonyl]-amino}-4-phenyl-butyric acid]"
11,> 10,"Cc1ccc([C@H](CC(=O)O)NC(=O)c2noc(-c3ccccc3F)n2)cc1 [Example 12, (S)-3-{[5-(2-Fluoro-phenyl)-[1,2,4]oxadiazole-3-carbonyl]-amino}-3-p-tolyl-propionic acid]"
12,0.316,"O=C(O)C[C@@H](Cc1ccccc1)NC(=O)c1noc(-c2ccccc2F)n1 [Example 13, (R)-3-{[5-(2-Fluoro-phenyl)-[1,2,4]oxadiazole-3-carbonyl]-amino}-4-phenyl-butyric acid]"
13,17.4,"C[C@@](CC(=O)O)(NC(=O)c1noc(-c2ccccc2F)n1)c1ccccc1 [Example 14, (S)-3-{[5-(2-Fluoro-phenyl)-[1,2,4]oxadiazole-3-carbonyl]-amino}-3-phenyl-butyric acid]"
14,4.92,"Cc1ccccc1[C@H](CC(=O)O)NC(=O)c1noc(-c2ccccc2F)n1 [Example 15, (S)-3-{[5-(2-Fluoro-phenyl)-[1,2,4]oxadiazole-3-carbonyl]-amino}-3-o-tolyl-propionic acid]"
15,> 10,"Cc1cccc([C@H](CC(=O)O)NC(=O)c2noc(-c3ccccc3F)n2)c1 [Example 16, (S)-3-{[5-(2-Fluoro-phenyl)-[1,2,4]oxadiazole-3-carbonyl]-amino}-3-m-tolyl-propionic acid]"
16,> 10,"O=C(O)C[C@H](NC(=O)c1noc(-c2ccccc2F)n1)c1ccccc1F [Example 17, (S)-3-(2-Fluoro-phenyl)-3-{[5-(2-fluoro-phenyl)-[1,2,4]oxadiazole-3-carbonyl]-amino}-propionic acid]"

row,IC50 [µM],Structure (SMILES)
1,> 10,"O=C(O)C[C@H](NC(=O)c1noc(-c2ccccc2F)n1)c1cccc(F)c1 [Example 18, (S)-3-(3-Fluoro-phenyl)-3-{[5-(2-fluoro-phenyl)-[1,2,4]oxadiazole-3-carbonyl]-amino}-propionic acid]"
2,8.58,"O=C(O)C[C@H](NC(=O)c1noc(-c2ccccc2F)n1)c1ccc(F)cc1 [Example 19, (S)-3-(4-Fluoro-phenyl)-3-{[5-(2-fluoro-phenyl)-[1,2,4]oxadiazole-3-carbonyl]-amino}-propionic acid]"
3,7.35,"O=C(O)C[C@H](NC(=O)c1noc(-c2cccc(F)c2F)n1)c1ccccc1 [Example 20, (S)-3-{[5-(2,3-Difluoro-phenyl)-[1,2,4]oxadiazole-3-carbonyl]-amino}-3-phenyl-propionic acid]"
4,0.152,"CCn1nc(C(=O)N[C@@H](CC(=O)O)c2ccccc2C)cc1-c1ccccc1 [Example 21, (S)-3-[(1-Ethyl-5-phenyl-1H-pyrazole-3-carbonyl)-amino]-3-o-tolyl-propionic acid]"
5,1.04,"CC(C)c1oc(-c2ccccc2)nc1C(=O)N[C@@H](CC(=O)O)c1ccccc1 [Example 22, (S)-3-[(5-Isopropyl-2-phenyl-oxazole-4-carbonyl)-amino]-3-phenyl-propionic acid]"
6,2.39,"COc1ccc([C@H](CC(=O)O)NC(=O)c2nc(-c3ccccc3)oc2C)cc1 [Example 23, (S)-3-(4-Methoxy-phenyl)-3-[(5-methyl-2-phenyl-oxazole-4-carbonyl)-amino]-propionic acid]"
7,6.39,"COc1cccc([C@H](CC(=O)O)NC(=O)c2nc(-c3ccccc3)oc2C)c1 [Example 24, (S)-3-(3-Methoxy-phenyl)-3-[(5-methyl-2-phenyl-oxazole-4-carbonyl)-amino]-propionic acid]"
8,0.311,"Cc1ccccc1[C@H](CC(=O)O)NC(=O)c1nc(-c2ccccc2F)oc1C [Example 25, (S)-3-{[2-(2-Fluoro-phenyl)-5-methyl-oxazole-4-carbonyl]-amino}-3-o-tolyl-propionic acid]"
9,> 10,"Cc1ccccc1[C@H](CC(=O)O)NC(=O)c1cc(-c2ccc(Cl)cc2)on1 [Example 26, (S)-3-{[5-(4-Chloro-phenyl)-isoxazole-3-carbonyl]amino}-3-o-tolyl-propionic acid]"
10,3.49,"Cc1cccc([C@H](CC(=O)O)NC(=O)c2nc(-c3ccccc3F)oc2C)c1 [Example 27, (S)-3-{[2-(2-Fluoro-phenyl)-5-methyl-oxazole-4-carbonyl]-amino}-3-m-tolyl-propionic acid]"
11,1.11,"Cc1oc(-c2ccccc2)nc1C(=O)N[C@@H](CC(=O)O)c1cccc(Cl)c1 [Example 28, (S)-3-(3-Chloro-phenyl)-3-[(5-methyl-2-phenyl-oxazole-4-carbonyl)-amino]-propionic acid]"
12,0.542,"Cc1oc(-c2ccccc2F)nc1C(=O)N[C@@H](CC(=O)O)Cc1ccccc1 [Example 29, (R)-3-{[2-(2-Fluoro-phenyl)-5-methyl-oxazole-4-carbonyl]-amino}-4-phenyl-butyric acid]"
13,> 10,"Cc1oc(-c2ccccc2F)nc1C(=O)N[C@@](C)(CC(=O)O)c1ccccc1 [Example 30, (S)-3-{[2-(2-Fluoro-phenyl)-5-methyl-oxazole-4-carbonyl]-amino}-3-phenyl-butyric acid]"
14,> 10,"O=C(O)C[C@H](NC(=O)CCc1nc(-c2ccccc2F)no1)c1ccccc1 [Example 31, (S)-3-{3-[3-(2-Fluoro-phenyl)-[1,2,4]oxadiazol-5-yl]-propionylamino}-3-phenyl-propionic acid]"
15,1.21,"Cc1oc(-c2ccccc2)nc1C(=O)N[C@@H](CC(=O)O)c1ccccc1Cl [Example 32, (S)-3-(2-Chloro-phenyl)-3-[(5-methyl-2-phenyl-oxazole-4-carbonyl)-amino]-propionic acid]"
16,1.03,"Cc1nc(C(=O)N[C@@H](CC(=O)O)c2ccccc2)nn1-c1ccccc1Cl [Example 33, (S)-3-{[1-(2-Chloro-phenyl)-5-methyl-1H-[1,2,4]triazole-3-carbonyl]-amino}-3-phenyl-propionic acid]"

row,Structure (SMILES),IC50 [µM]
1,"Cc1ccccc1[C@H](CC(=O)O)NC(=O)c1nn(C(C)C)c2ccccc12 [Example 6, (S)-3-[(1-Isopropyl-1H-indazole-3-carbonyl)-amino]-3-o-tolyl-propionic acid]",0.351

# Reference: patent publication US9751858B2, “3-heteroaroylamino-propionic acid derivatives and their use as pharmaceuticals” (SANOFI, priority 2011, dated 2017)
